The term IC50 denotes the concentration that gives 50% inhibition.

Holding throughout (assay type): functional, cell-based
Assay [1] deals with MIA PaCa-2. As to the kind of experiment: Antiproliferative activity against human MIA PaCa-2 cells assessed as inhibition of cell proliferation incubated for 48 hrs by CCK-8 assay. Conditions: MIA PaCa-2, 48 h.
Assay [2] has as its system PANC-1. As to the kind of experiment: Antiproliferative activity against human PANC-1 cells assessed as inhibition of cell proliferation incubated for 48 hrs by CCK-8 assay. Conditions: PANC-1, 48 h.
Assay [3] has as its system MCF7. Briefly: Antiproliferative activity against human MCF7 cells assessed as inhibition of cell proliferation incubated for 48 hrs by CCK-8 assay. Conditions: MCF7, 48 h. Background: Tetrazolium assays rely on reduction of a dye to a coloured formazan, in cell work by metabolically active cells.
Assay [4] concerns HepG2. Briefly: Antiproliferative activity against human HepG2 cells assessed as inhibition of cell proliferation incubated for 48 hrs by CCK-8 assay. Conditions: HepG2, 48 h.
The subject of assay [5] is A549. Briefly: Antiproliferative activity against human A549 cells assessed as inhibition of cell proliferation incubated for 48 hrs by CCK-8 assay. Conditions: A549, 48 h.

In the case of `COc1cccc2c1C(=O)c1c(O)c3c(c(O)c1C2=O)C[C@@](O)(C(=O)CO)C[C@@H]3O[C@H]1C[C@H](N)[C@H](O)[C@H](C)O1` [DOXORUBICIN], the IC50 in assay [1] amounted to 1.16 µM; in assay [2], 1.19 µM.

With `O=C(O)c1ccc(N=C=S)cc1`, the IC50 in assay [3], in assay [4], in assay [1], in assay [2] and in assay [5] was more than 40 µM throughout.

In the case of `C=C1C(=O)[C@]23[C@H](OC(=O)CCCC(=O)OCCCCOC(=O)c4ccc(N=C=S)cc4)[C@H]1CC[C@H]2[C@@]12CO[C@]3(O)[C@@H](O)[C@@H]1C(C)(C)CCC2=O`, the IC50 came out at 6.93 µM in assay [3]; 8.69 µM in assay [4]; 11 µM in assay [1]; 18.8 µM in assay [2]; 24.4 µM in assay [5].

Take `C=C1C(=O)[C@]23[C@H](O)[C@H]1CC[C@H]2[C@@]12CO[C@]3(O)[C@@H](O)[C@@H]1C(C)(C)CC[C@@H]2O` [ORIDONIN]: the 50% inhibitory concentration (IC50) is 16 µM in assay [3]; 28.1 µM in assay [4]; 5.97 µM in assay [1]; 19.1 µM in assay [2]; 14.9 µM in assay [5].

Turning to `C=C1C(=O)[C@]23[C@H](OC(=O)CCC(=O)OCC#CCOC(=O)c4ccc(N=C=S)cc4)[C@H]1CC[C@H]2[C@@]12CO[C@]3(O)[C@@H](O)[C@@H]1C(C)(C)CC[C@@H]2OC(C)=O`, the IC50 in assay [3] was 4.49 µM; in assay [4], 7.65 µM; in assay [1], 28.7 µM; in assay [2] it was more than 40 µM; in assay [5], more than 40 µM.

Turning to `C=C1C(=O)[C@]23[C@H](OC(=O)CCCC(=O)OCc4ccc(-c5nc(=O)ss5)cc4)[C@H]1CC[C@H]2[C@@]12CO[C@]3(O)[C@@H](O)[C@@H]1C(C)(C)CCC2=O`, the IC50 in assay [3] was more than 40 µM; in assay [5], 28.5 µM.

`C=C1C(=O)[C@]23[C@H](OC(=O)CCCC(=O)OCCCOC(=O)c4ccc(N=C=S)cc4)[C@H]1CC[C@H]2[C@@]12CO[C@]3(O)[C@@H](O)[C@@H]1C(C)(C)CC[C@@H]2OC(C)=O`: the IC50 in assay [3] was 6.98 µM; in assay [4], more than 40 µM; in assay [1] it was 14.9 µM; in assay [2], 24.8 µM; in assay [5], more than 40 µM.

As for `C=C1C(=O)[C@]23[C@H](OC(=O)CCC(=O)OCC#CCOC(=O)c4ccc(N=C=S)cc4)[C@H]1CC[C@H]2[C@@]12CO[C@]3(O)[C@@H](O)[C@@H]1C(C)(C)CC[C@@H]2O`, the IC50 in assay [3] and in assay [5] was more than 40 µM each time.

For `C=C1C(=O)[C@]23[C@H](OC(=O)CCCC(=O)OCCCCOC(=O)c4ccc(N=C=S)cc4)[C@H]1CC[C@H]2[C@@]12CO[C@]3(O)[C@@H](O)[C@@H]1C(C)(C)CC[C@@H]2OC(C)=O`, the 50% inhibitory concentration (IC50) in assay [3] is 9.99 µM; in assay [5] it was more than 40 µM.

As to `C=C1C(=O)[C@]23[C@H](OC(=O)CCC(=O)OCCOC(=O)c4ccc(N=C=S)cc4)[C@H]1CC[C@H]2[C@@]12CO[C@]3(O)[C@@H](O)[C@@H]1C(C)(C)CC[C@@H]2O`, the half-maximal inhibitory concentration (IC50) in assay [3] and in assay [5] was more than 40 µM throughout.

Turning to `C=C1C(=O)[C@]23[C@H](OC(=O)CCCC(=O)OCC#CCOC(=O)c4ccc(N=C=S)cc4)[C@H]1CC[C@H]2[C@@]12CO[C@]3(O)[C@@H](O)[C@@H]1C(C)(C)CC[C@@H]2O`, the IC50 in assay [3] and in assay [5] was more than 40 µM throughout.

As for `C=C1C(=O)[C@]23[C@H](O)[C@H]1CC[C@H]2[C@@]12CO[C@]3(O)[C@@H](O)[C@@H]1C(C)(C)CCC2=O`, the IC50 in assay [3] came out at 13.5 µM; in assay [5] it was 6.84 µM.

The values above are taken from ChEMBL document CHEMBL6087397, “H2S-releasing oridonin derivatives with improved antitumor activity by inhibiting the PI3K/AKT pathway” (Bioorg Med Chem, 2024).
